Experimental data from the supplement of paper PMC10307832.

Legend:
Experiment in all cases: relative viability (nuclei count vs DMSO), 5 days (fraction); higher = more cells survive
[1] = compound: C1COCCN1C2=NC(=NC3=C2OC4=C3C=CC=N4)C5=CC(=CC=C5)NC(=O)C6=CN=C(C=C6)N + NC(=O)Nc1cc(-c2cccc(F)c2)sc1C(=O)N[C@H]1CCCNC1 [AZD7762] (partner 0.2 µM)
Outline: (§1)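 Lung cancer cell lines were pin-tool dosed in 1536-well plates on the day after seeding, with either a lone drug or a fixed anchor-drug dose plus five library-drug doses (not always all listed) in √10 steps. Nuclei were counted on 4× images after 5 days. Relative viability is the ratio of treated-well to vehicle-well nuclei counts, with each value a median of duplicate plates.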

[2] = compound: C1COCCN1C2=NC(=NC3=C2OC4=C3C=CC=N4)C5=CC(=CC=C5)NC(=O)C6=CN=C(C=C6)N + O=C(CCCCCCC(=O)Nc1ccccc1)NO [Vorinostat] (partner 1 µM)
Outline: as §1

SGI-1776 + Vorinostat = compound: CN1CCC(CNc2ccc3ncc(-c4cccc(OC(F)(F)F)c4)n3n2)CC1 [SGI-1776] + O=C(CCCCCCC(=O)Nc1ccccc1)NO [Vorinostat] (partner 1 µM)
Outline: as §1

[3] = compound: C1COCCN1C2=NC(=NC3=C2OC4=C3C=CC=N4)C5=CC(=CC=C5)NC(=O)C6=CN=C(C=C6)N + O=C(c1cc(Cc2n[nH]c(=O)c3ccccc23)ccc1F)N1CCN(C(=O)C2CC2)CC1 [Olaparib] (partner 8 µM)
Outline: as §1

Row | Cell Line | relative viability ([1]; first compound 0.02 µM) | relative viability ([1]; first compound 0.06325 µM) | relative viability ([1]; first compound 0.2 µM) | relative viability ([1]; first compound 0.6325 µM) | relative viability ([1]; first compound 2 µM) | relative viability ([2]; first compound 0.02 µM) | relative viability ([2]; first compound 0.06325 µM) | relative viability ([2]; first compound 0.2 µM) | relative viability ([2]; first compound 0.6325 µM) | relative viability ([2]; first compound 2 µM) | relative viability (SGI-1776 + Vorinostat; first compound 0.08 µM) | relative viability (SGI-1776 + Vorinostat; first compound 0.8 µM) | relative viability (SGI-1776 + Vorinostat; first compound 2.53 µM) | relative viability (SGI-1776 + Vorinostat; first compound 8 µM) | relative viability ([3]; first compound 0.02 µM) | relative viability ([3]; first compound 0.06325 µM) | relative viability ([3]; first compound 0.2 µM) | relative viability ([3]; first compound 0.6325 µM) | relative viability ([3]; first compound 2 µM)
1 | NCI-H2170 | 0.914 | 1.05 | 0.798 | 0.837 | 0.488 | 0.93 | 0.997 | 0.643 | 0.729 | 0.518 | 0.83 | 0.825 | 0.853 | 0.76 | 0.736 | 0.652 | 0.528 | 0.624 | 0.41
2 | HCC-78 | 0.628 | 0.642 | 0.576 | 0.685 | 0.589 | 0.444 | 0.5 | 0.431 | 0.326 | 0.334 | 0.456 | 0.44 | 0.501 | 0.339 | 0.751 | 0.896 | 0.85 | 0.842 | 0.583
3 | NCI-H1395 | 0.387 | 0.348 | 0.374 | 0.371 | 0.372 | 0.66 | 0.727 | 0.542 | 0.637 | 0.595 | 0.887 | 0.755 | 0.558 | 0.47 | 0.473 | 0.427 | 0.422 | 0.461 | 0.377
4 | H3255 | 0.923 | 0.959 | 0.856 | 0.859 | 0.7 | 0.814 | 0.744 | 0.788 | 0.781 | 0.698 | 0.904 | 0.919 | 0.815 | 0.718 | 0.522 | 0.531 | 0.531 | 0.56 | 0.436
